These results are taken from the NIST ThermoML archive (doi:10.1021/je800837z).

Numbers after ± are expanded uncertainties.

For the data set the following is noted: Crystal; DTA.

As to `CCN1CCN(C(=O)N[C@H](C(=O)N[C@H]2C(=O)N3C(C(=O)[O-])=C(CSc4nnnn4C)CS[C@@H]23)c2ccc(O)cc2)C(=O)C1=O.[Na+]`, the Normal melting temperature was determined as 180.00 ± 1.1 °C.
